What was measured:
[1] = target: T1, α-synuclein (Homo sapiens, UniProt P37840); test: Inhibition of fibrillization of α-synuclein in vitro (thioflavin S fluorescence); format: biochemical; conditions: 2 mg/mL α-synuclein, shaking at 37° C., 20 μM Gossypetin, compared with sample without Gossypetin (FIG. 7)
T1 construct: made in house; host or cells: E. coli BL21(DE3), pRK172 vector
Procedure: Gossypetin, a polyphenol compound may be taken as an example of a candidate substance. Gossypetin is a flavonol contained in Gossypium herbaceum LINNE and is polyphenol compound used as a food additive. For example, it is possible to investigate whether Gossypetin inhibits fibrillization of α-synuclein in vitro by incubating α-synuclein in the presence of Gossypetin, adding thioflavin S to the solution after the reaction and measuring the fluorescence intensity. Thioflavin S is a test reagent which emits fluorescence upon binding to a protein which can serve as a polymerization nucleus of a protein polymer, or a protein polymer thereof, which are rich in β-sheet structure and which therefore can be used to determine the presence or absence of a protein which can serve as a polymerization nucleus of a protein polymer, or a protein polymer thereof. In contrast, since α-synuclein fibrils are rich in β-sheet structure, if Gossypetin inhibits fibrillization of α-synuclein, the fluorescence intensity should be lower than samples to which Gossypetin has not been added.
[…] Fluorescence intensity was measured using a Hitachi F4000 spectrophotometer (excitation wavelength 440 nm, fluorescence wavelength 520 nm).
2 mg/mL of α-synuclein was incubated with shaking at 37° C. in the presence or absence of 20 μM of Gossypetin. Fibril formation was measured by thioflavin S fluorescence. […]

[2] = test system: SH-SY5Y cells into which α-synuclein plasmid and fibrils are introduced (WT+FαS cells); test: Cell death assay (LDH leakage) in the cellular model of α-synuclein proteinopathy; format: cell-based; conditions: Gossypetin (20 μM), incubated three days; without polyphenol approximately 50% (FIG. 8)
Procedure: A cell death assay was performed using cells into which pcDNA3-α-syn vector and α-synuclein fibrils are introduced, and which had been incubated for three days either in the presence or the absence of a fibrillization inhibitor. Gossypetin (20 μM) which is a type of polyphenol was used as the fibrillization inhibitor.
After incubation for three days, a portion of the cell media in the culture was harvested. The cells from the remaining media were prepared as a Tris-soluble fraction in the same manner as the Tris-soluble fraction described above. A cell death assay was performed on the harvested media and the Tris-soluble fraction using a CYTOTOX 96™ Non-Radioactive Cytotoxicity Assay Kit (Promega). The method was performed in accordance with the explanatory material accompanying the kit.
A cell death assay was performed on the following three types of cells: untreated cells (none), FαS cells into which only α-synuclein fibril was introduced, and WT+FαS cells into which fibril and α-synuclein plasmid DNA were introduced. After culturing the cells for three days, cell death was evaluated by lactate dehydrogenase (LDH) leakage assay. This assay is based on determining how much LDH originally inside the cell has leaked outside the cell as a result of cell death.
Gossypetin was added to SH-SY5Y cells into which α-synuclein plasmid and fibrils are introduced, and incubated for three days. […]

With `O=c1c(O)c(-c2ccc(O)c(O)c2)oc2c(O)c(O)cc(O)c12` [Gossypetin] the “thioflavin S fluorescence intensity (fibril formation of α-synuclein)” value [1] was “conspicuous decrease” and the “rate of cell death” value [2] was “conspicuous inhibition”.

From patent publication US9802992B2, “Cell into which protein, which can serve as polymerization nucleus of protein polymer, or polymer thereof is introduced, and method for production of the cell” (TOKYO ME[…] OF MEDICAL SCIENCE, priority 2005, dated 2017)
